Patent publication US20260223838A1, “ANTIMICROBIAL MASTERBATCHES AND POWDERS COMPRISING A SYNERGISTIC BLEND OF COMPONENTS” (priority 2023, published 2026)

What follows are molecules tested on E. coli (ATCC 8739) (assay: Zone of Inhibition (ZOI) of pressed powder pellets). Conditions: against E. coli after 24 h incubation at 37° C.
Procedure: Zone of Inhibition (ZOI). […] The cultures were streaked on Luria Agar (LB) plates and incubated overnight at 37° C. […] 50 μL of this stock suspension was spread homogeneously on a trypticase soy agar (TSA) plate (diameter 10 cm).

| Molecule | diameter of the ZOI |
| --- | --- |
| [O]=[Mo](=[O])=[O] [molybdenum oxide, molybdenum (VI) oxide] | 19 mm |
| Zinc borate | No ZOI |
| basic copper (II) carbonate [BCC] | 12 mm |
